Data set [1] concerns HEK293T/17-ATF4 uORF-Luc-Puro monoclonal cells. Description: Cell activity test: ATF4 luciferase reporter, thapsigargin-induced stress. Format: cell-based. As to conditions: Homo sapiens, HEK-293T; ATF4 reporter expression, 50 nM thapsigargin, 6 hours. From the text:
The ATF4 luciferase reporter plasmid consists of two parts, i.e., the 5′ untranslated region sequence of the ATF4 gene and the luciferase coding sequence. Specifically, the ATF4 5′ untranslated region sequence (NCBI database number BC022088.2) containing two upstream open reading frames (uORFs), and the firefly luciferase encoding gene were cloned into the pLVX-Puro vector (YouBio, VT1465). The lentivirus packaging plasmids were psPAX2 (YouBio, VT1444) and pMD2.G (YouBio, VT1443). HEK293T/17 cells were transfected with the above three plasmids simultaneously using X-tremeGENE 9 DNA transfection reagent, and after 48 hours, a culture medium containing lentivirus was collected. HEK293T/17 cells transduced with the virus were screened with 1 μg/mL puromycin, and then monoclonal cells were obtained by limiting dilution.
By using this cell line and the cold fluorescence readings, the translational regulation of ATF4 can be detected, and the activity of the eIF2B activator can be tested. The specific experimental process is as follows: 6000 HEK293T/17-ATF4 uORF-Luc-Puro monoclonal cells were plated in a 384-well plate and allowed to adhere overnight. The test compounds were dissolved in DMSO and added together with 50 nM thapsigargin to the cell culture medium and incubated for 6 hours, wherein the thapsigargin was used to cause cellular stress and upregulate the protein translation of ATF4. Six hours after the addition, the cells were lysed using the One-Glo Luciferase Assay Kit (Promega #E6120), and then the cold fluorescence values were read using the LUM program of the EnVision 2104 plate reader.
The ATF4 reporter expression % was calculated as follows:
[formula] • ave_vc: average signal value of negative control • ave_pc: average signal value of positive control • ave_sample: average signal value of sample
The dose-response curves were fitted, and the EC50 values were calculated.
The nonlinear regression log (inhibitor) vs. response—variable slope (four parameters) method of GraphPad 9 software was used to fit the corresponding relationship between the ATF4 reporter expression % and the compound concentration.
X-axis: log value of compound concentration; Y-axis: ATF4 reporter expression %; Top: evaluation of upper asymptote of curve; Bottom: evaluation of lower asymptote of curve; Hillslope: slope of the fitted curve.
A general note: Reporter assays use an easily measured gene product as a stand-in for the process of interest.

Data set [2] can be described thus: In vitro liver microsome stability. Format: in vitro ADME. As to conditions: liver microsomes, NADPH, 37° C. Here is the method: A 5 mM MgCl2 100 mM K-Mg buffer solution was pre-heated. 5 μL of a 10 mM compound and a reference stock solution were added to 95 μL of acetonitrile (ACN) to prepare a spiked solution. 1.5 μL of a 500 µM spiked solution and 18.75 μL of 20 mg/mL liver microsomes were added to 479.8 μL of the K-Mg buffer solution. NADPH was dissolved in the K-Mg-buffer solution to prepare an NADPH stock solution ([…]). At different time points (0, 5, 15, 30 and 45 minutes), 30 μL of a 1.5 μM spiked solution containing the microsomes was evenly dropped into an assay plate. The plate was preincubated at 37° C. for 5 minutes. At 0 min, 200 μL of ACN containing IS (internal standard, tolbutamid/terfenadine) was added to the wells, and then 15 μl of the NADPH stock solution (6 mM) was added. For other time points, 15 μL of the NADPH stock solution (6 mM) was added to the wells to initiate the reaction and start the timing. At 5, 15, 30 and 45 min, the reaction was stopped by adding 200 μL of ACN containing IS to the corresponding wells of the plate. After quenching, the plate was shaken at 600 rpm for 10 minutes and then centrifuged at 4000 rpm for 50 minutes. 80 μL of the supernatant from each well was transferred to a 96-well sample plate containing 160 μL of pure water for UPLC/MS/MS analysis.
On the technique in general: Liver microsomes are vesicles of endoplasmic reticulum, rich in cytochrome P450 enzymes.

Data set [3] in a line: Cell membrane permeability (A to B / B to A, efflux ratio). It is filed as in vitro ADME. The procedure: The test compounds were diluted from 10 mM stock solutions to a concentration of 10 μM using the transport buffer (HBSS+BSA) and applied to the apical or basolateral side of the cell monolayer. After the incubation at 37° C., 5% CO2 and 95% relative humidity for 120 minutes, the permeability of the test compounds in the A to B direction or the B to A direction was tested in duplicate. In addition, the efflux ratio of each compound was determined. The test substances and reference substances were quantitatively analyzed by the LC-MS/MS method based on the analyte/IS peak area ratio.

In a further data set the target is T1, CYP2C19 (Homo sapiens, UniProt P33261).
T1 construct: A phosphate buffer solution of liver microsomes was prepared; from tissue; host or cells: human liver microsomes
T1 sequence (P33261 whole entry): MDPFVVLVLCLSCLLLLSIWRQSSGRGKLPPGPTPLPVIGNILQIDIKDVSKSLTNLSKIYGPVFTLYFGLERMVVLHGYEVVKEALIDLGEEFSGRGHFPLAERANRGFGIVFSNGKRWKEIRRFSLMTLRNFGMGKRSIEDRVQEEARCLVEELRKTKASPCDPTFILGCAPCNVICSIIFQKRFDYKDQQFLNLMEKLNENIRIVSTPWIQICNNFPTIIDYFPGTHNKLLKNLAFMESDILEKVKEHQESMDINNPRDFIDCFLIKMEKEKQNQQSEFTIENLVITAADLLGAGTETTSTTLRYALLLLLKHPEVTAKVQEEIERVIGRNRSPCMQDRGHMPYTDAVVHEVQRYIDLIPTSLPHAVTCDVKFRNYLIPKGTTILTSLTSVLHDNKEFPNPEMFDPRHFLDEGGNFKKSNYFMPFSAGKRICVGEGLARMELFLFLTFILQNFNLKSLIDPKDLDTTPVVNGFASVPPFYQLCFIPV
As to the kind of experiment: P450 enzyme inhibition, CYP2C19. Format: in vitro ADME. The following applies: human liver microsome, substrate Mephenytoin. Here is the method: A phosphate buffer solution of liver microsomes was prepared. 169 μL of the phosphate buffer solution of liver microsomes and 1 μL of working solutions of various concentrations of test compounds or positive control compounds were added to a 96-well plate. The culture plate was placed in a water bath and pre-heated at 37° C. for 15 minutes. After the incubation, 10 μL of substrates were added to the culture plate (1 μL of substrates and 9 μL of the K-Mg buffer solution were added to the plate for CYP3A4-T). The incubation mixture was mixed on a rotating mixer for 10 seconds, and then 20 μL of a 10 mM NADPH solution was added to start the reaction at a final concentration of 1 mM. The experiment was repeated twice. At the predetermined time points listed in Table 4, the reaction was quenched by adding 400 μL of the quenching solution (cold ACN containing 500 nM mephetedrine and 10 nM terfenadine). Centrifugation was performed at 3220 g for 50 minutes at 4° C. 100 μl of the supernatant was transferred to a new plate. The supernatant was diluted with 100 μL of pure water. The mixture was mixed evenly, and the sample was analyzed by UPLC-MS/MS.

Consider `O=C(COc1ccc(Cl)c(F)c1)N[C@H]1CC[C@H](c2nnc(N3CC(OC(F)(F)F)C3)o2)CC1` [Compound 6], for which, in data set [1], the EC50 is below 0.001 µM. In data set [2], this compound gave a half-life at 1 µM above 1.5 h. In addition, the efflux ratio at 120 min, 10 µM in data set [3] was determined as 0.71. Besides, in data set [3] (37° C.), the Papp A→B at 120 min, 10 µM is 25.8 ×10⁻⁶ cm/s and the Papp B→A at 120 min, 10 µM was 18.4 ×10⁻⁶ cm/s. The compound further returned an IC50 against CYP2C19 above 10 µM.

Broadly, the EC50 is the concentration needed to bring the measured effect to its halfway point. A lower EC50 goes with higher potency in that assay. The half-life is the time needed for the level to fall by half in the phase considered. Higher therefore signals slow loss. The term efflux ratio denotes the permeability from basolateral to apical divided by that in the opposite direction, in the common usage. Usually Papp A→B stands for the apparent permeability from the apical to the basolateral side of a cell layer. For orientation: Papp B→A means the apparent permeability from the basolateral to the apical side of a cell layer. The IC50 is the concentration that gives 50% inhibition. The low end stands for greater potency in that assay, the high end for weaker potency in that assay.

Values taken from patent publication US12612392B2, “Compound, pharmaceutical compositions containing same, synthesis method therefor and use thereof” (SHENZHEN ZHONGGE BIOLOGICAL TECHNOLOGY CO., LTD., priority 2022, dated 2026).
